EC50 data for eleven compounds are collected here from US20100173935A1, “Muscarinic Receptor Agonists that are Effective in the Treatment of Pain, Alzheimer's Disease and Schizophrenia” (AstraZeneca AB, priority 2006, published 2010).

Read-outs that look alike come from different tables or passages of the source.

The EC50 is the concentration at which the effect is half-maximal.

The target in the experiment is T1, human M2 receptor (Homo sapiens, UniProt P08172).
T1 construct: purchased Perkin-Elmer RBHM2M; host or cells: CHO cell membranes
T1 sequence (P08172 1-466): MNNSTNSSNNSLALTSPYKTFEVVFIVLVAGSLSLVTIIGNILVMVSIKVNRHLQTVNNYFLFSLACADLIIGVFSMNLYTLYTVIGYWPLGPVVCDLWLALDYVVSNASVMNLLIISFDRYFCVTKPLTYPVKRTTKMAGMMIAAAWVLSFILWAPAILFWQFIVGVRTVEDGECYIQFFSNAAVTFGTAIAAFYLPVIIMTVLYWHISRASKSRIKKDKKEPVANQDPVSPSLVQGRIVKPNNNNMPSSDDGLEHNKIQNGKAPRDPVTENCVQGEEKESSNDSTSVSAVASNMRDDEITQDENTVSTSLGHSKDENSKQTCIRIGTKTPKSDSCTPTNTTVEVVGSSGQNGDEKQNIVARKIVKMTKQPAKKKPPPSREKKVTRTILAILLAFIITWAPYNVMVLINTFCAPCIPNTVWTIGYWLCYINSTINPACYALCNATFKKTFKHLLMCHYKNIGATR
The experiment in a line: hM2 receptor GTPγS binding. It counts as biochemical. The method, then:
Membranes produced from Chinese hamster ovary cells (CHO) expressing the cloned human M2 receptor (human Muscarinic receptor subtype 2, gene bank access NM_000739), were obtained from Perkin-Elmer (RBHM2M). The membranes were thawed at 37° C., passed 3 times through a 23-gauge blunt-end needle, diluted in the GTPγS binding buffer (50 mM Hepes, 20 mM NaOH, 100 mM NaCl, 1 mM EDTA, 5 mM MgCl2, pH 7.4, […] DTT). The EC50, IC50 and Emax of the compounds of the invention were evaluated from 10-point dose-response curves (three fold concentration range) done in 60 μl in 384-well non-specific binding surface plate (Corning). Ten microliters from the dose-response curves plate (5× concentration) were transferred to another 384 well plate containing the following: 10 μg of hM2 membranes, 500 μg of Flashblue beads (Perkin-Elmer) and GDP in a 25 μl volume. An additional 15 μl containing 3.3× (55000 dpm) of GTRγ35S (0.4 nM final) were added to the wells resulting in a total well volume of 50 μl. Basal and maximal stimulated [^35S]GTPγS binding were determined in absence and presence of 30 μM of acetylcholine agonist. The membranes/beads mix were pre-incubated for 15 minutes at room temperature with 25 μM GDP prior to distribution in plates (12.5 μM final). The reversal of acetylcholine-induced stimulation (2 μM final) of [^35S]GTPγS binding was used to assay the antagonist properties (IC50) of the compounds. The plates were incubated for 60 minutes at room temperature with shaking, then centrifuged at 2000 rpm for 5 minutes. The radioactivity (cpm) were counted in a Trilux (Perkin-Elmer).
Values of EC50, IC50 and Emax were obtained using sigmoidal fits of a non-linear curve-fitting program (XLfit version 5.0.6 from ID Business Solutions Limited, Guildford, UK) of percent stimulated [^35S]GTPγS binding vs. log(molar ligand).
All EC50 and IC50 values are reported as arithmetic means t standard error of mean of ‘n’ independent experiments. […] The IC50 was the concentration of the compound of the invention at which 50% inhibition of acetylcholine [^35S]GTPγS binding stimulation has been observed.

The mark [1] stands for this setting: CHO membranes expressing cloned human M2, [35S]GTPγS binding, read-out: hM2 EC50.

`CCOC(=O)N1CC[C@H](N2CCC(n3c(=O)[nH]c4ccc(Cl)cc43)CC2)C1` [Example 42, Ethyl (3S)-3-[4-(6-chloro-2-oxo-2,3-dihydro-1H-benzimidazol-1-yl)piperidin-1-yl]pyrrolidine-1-carboxylate]: the EC50 was determined as 1.2 µM.

`O=C1CCCN1CCC(=O)N1CC[C@H](N2CCC(N3C(=O)Cc4ccccc43)CC2)C1` [Example 29, 1-(1-{(3S)-1-[3-(2-oxopyrrolidin-1-yl)propanoyl]pyrrolidin-3-yl}piperidin-4-yl)-1,3-dihydro-2H-indol-2-one] showed an EC50 of 1.75 µM.

For `CCOC(=O)N1CC[C@@H](N2CCC(n3c(=O)[nH]c4ccccc43)CC2)C1` [Example 16, Ethyl (3R)-3-[4-(2-oxo-2,3-dihydro-1H-benzimidazol-1-yl)piperidin-1-yl]pyrrolidine-1-carboxylate], under setting [1], the EC50 is 3.29 µM.

In the case of `CCOC(=O)N1CC[C@H](N2CCC(n3c(=O)[nH]c4ccc(C#N)cc43)CC2)C1` [Example 41, Ethyl (3S)-3-[4-(6-cyano-2-oxo-2,3-dihydro-1H-benzimidazol-1-yl)piperidin-1-yl]pyrrolidine-1-carboxylate], the EC50 is > 3.33 µM.

In the case of `Cn1c(=O)n(C2CCN([C@H]3CCN(C(=O)CCN4CCCC4=O)C3)CC2)c2ccccc21` [Example 24, 1-methyl-3-(1-{(3S)-1-[3-(2-oxopyrrolidin-1-yl)propanoyl]pyrrolidin-3-yl}piperidin-4-yl)-1,3-dihydro-2H-benzimidazol-2-one], under setting [1], the EC50 was > 30 µM.

As for `O=C1CCCN1CCCC(=O)N1CC[C@H](N2CCC(n3c(=O)[nH]c4ccccc43)CC2)C1` [Example 22, 1-(1-{(3S)-1-[4-(2-oxopyrrolidin-1-yl)butanoyl]pyrrolidin-3-yl}piperidin-4-yl)-1,3-dihydro-2H-benzimidazol-2-one], the EC50 was > 30 µM.

As to `CCOC(=O)N1CC[C@H](N2CCC(n3c(=O)[nH]c4ccc(F)cc43)CC2)C1` (single isomer, unassigned) [Example 35], the 50% effective concentration (EC50) was > 30 µM.

For `CCOC(=O)N1CCC(N2CCC(C3C(=O)Nc4ccccc43)CC2)C1` (centres unmarked) [Example 13, Ethyl 3-[4-(2-oxo-2,3-dihydro-1H-indol-3-yl)piperidin-1-yl]pyrrolidine-1-carboxylate], under setting [1], the concentration for a half-maximal effect (EC50) is 3.54 µM.

As to `CCOC(=O)N1CC[C@H](N2CCC(N3C(=O)Cc4ccccc43)CC2)C1` [Example 26, Ethyl (3S)-3-[4-(2-oxo-2,3-dihydro-1H-indol-1-yl)piperidin-1-yl]pyrrolidine-1-carboxylate], the EC50 was 7.45 µM.

Turning to `CCOC(=O)N1CC[C@@H](N2CCC(n3c(=O)[nH]c4ccc(F)cc43)CC2)C1` (single isomer, unassigned) [Example 36], it took 4.65 µM to reach a half-maximal effect (EC50).

Take `O=C(C1CCCC1)N1CC[C@H](N2CCC(n3c(=O)[nH]c4ccccc43)CC2)C1` [Example 19, 1-{1-[(3S)-1-(cyclopentylcarbonyl)pyrrolidin-3-yl]piperidin-4-yl}-1,3-dihydro-2H-benzimidazol-2-one]: the midpoint of the response, the EC50, lay at 0.245 µM.
